From ChEMBL document CHEMBL6109124, “Identification of effective anti-osteosarcoma agents via screening of an in-house NQO1-targeted compound library” (Bioorg Med Chem, 2025)
Active and inactive are the calls of the source. No cut-off for these calls is given here.

What was measured:
[1] = tested on: HOS-TE85; assay: Antitumor activity against iv dosed human MNNG cells xenografted in Balb/c mouse assessed as reduction in tumor cell proliferation administered every 2 days for 3 weeks and measured post last dose by Ki-67 staining based assay; assay type: functional, organism-based; details: dose 15-45 mg/kg, time 21.0 day
[2] = tested on: HOS-TE85; assay: Cell cycle arrest in human MNNG cells assessed as accumulation of cells at S phase at 1 uM measured after 24 hrs by propidium iodide staining based flow cytometry (reference value: 39.4%); assay type: functional
[3] = tested on: HOS-TE85; assay: Cell cycle arrest in human MNNG cells assessed as accumulation of cells at S phase at 2.5 uM measured after 24 hrs by propidium iodide staining based flow cytometry (reference value: 39.4%); assay type: functional
[4] = tested on: HOS-TE85; assay: Cytotoxicity against human MNNG cells assessed as cell growth inhibition measured after 72 hrs by MTT assay; assay type: functional, cell-based; details: HOS-TE85, 72 h
[5] = tested on: HOS-TE85; assay: Induction of apoptosis in human MNNG cells assessed as late apoptotic cells at 2.5 uM measured after 48 hrs by Alexa Fluor 488 Annexin V/propidium iodide staining based flow cytometry (reference value: 0.51%); assay type: functional
[6] = tested on: HOS-TE85; assay: Induction of apoptosis in human MNNG cells assessed as early apoptotic cells at 1 uM measured after 48 hrs by Alexa Fluor 488 Annexin V/propidium iodide staining based flow cytometry (reference value: 0.69%); assay type: functional
[7] = tested on: HOS-TE85; assay: Induction of apoptosis in human MNNG cells assessed as viable cells at 10 uM measured after 48 hrs by Alexa Fluor 488 Annexin V/propidium iodide staining based flow cytometry (reference value: 98.8%); assay type: functional; details: read-out: Activity
[8] = tested on: HOS-TE85; assay: Induction of apoptosis in human MNNG cells assessed as necrotic cells at 5 uM measured after 48 hrs by Alexa Fluor 488 Annexin V/propidium iodide staining based flow cytometry (reference value: 0.04%); assay type: functional
[9] = tested on: HOS-TE85; assay: Cell cycle arrest in human MNNG cells assessed as accumulation of cells at G2/M phase at 10 uM measured after 24 hrs by propidium iodide staining based flow cytometry (reference value: 39.4%); assay type: functional
[10] = tested on: HOS-TE85; assay: Cell cycle arrest in human MNNG cells assessed as accumulation of cells at G0/G1 phase at 1 uM measured after 24 hrs by propidium iodide staining based flow cytometry (reference value: 51.4%); assay type: functional
[11] = tested on: HOS-TE85; assay: Cell cycle arrest in human MNNG cells assessed as accumulation of cells at G2/M phase at 1 uM measured after 24 hrs by propidium iodide staining based flow cytometry (reference value: 39.4%); assay type: functional
[12] = tested on: HOS-TE85; assay: Induction of apoptosis in human MNNG cells assessed as early apoptotic cells at 5 uM measured after 48 hrs by Alexa Fluor 488 Annexin V/propidium iodide staining based flow cytometry (reference value: 0.69%); assay type: functional
[13] = tested on: HOS-TE85; assay: Cytotoxicity against human MNNG cells assessed as cell growth inhibition at 10 uM measured after 72 hrs by MTT assay relative to control; assay type: functional; details: read-out: GI
[14] = tested on: HOS-TE85; assay: Induction of apoptosis in human MNNG cells assessed as necrotic cells at 10 uM measured after 48 hrs by Alexa Fluor 488 Annexin V/propidium iodide staining based flow cytometry (reference value: 0.04%); assay type: functional
[15] = Toxicity in human MNNG cell xenografted Balb/c mouse assessed as mortality at 15 to 45 mg/kg, iv administered every 2 days for 3 weeks and measured every other day during compound dosing; assay type: organism-based; details: in vivo, 504 h, dose 15-45 mg/kg, time 21 day
[16] = tested on: HOS-TE85; assay: Induction of apoptosis in human MNNG cells assessed as late apoptotic cells at 1 uM measured after 48 hrs by Alexa Fluor 488 Annexin V/propidium iodide staining based flow cytometry (reference value: 0.51%); assay type: functional
[17] = Toxicity in human MNNG cell xenografted Balb/c mouse assessed as reduction in Cr level at 15 to 45 mg/kg, iv administered every 2 days for 3 weeks and measured post last dose; assay type: organism-based; details: in vivo, 504 h, dose 15-45 mg/kg, time 21 day
[18] = tested on: HOS-TE85; assay: Antitumor activity against human MNNG cells xenografted in Balb/c mouse assessed as tumor growth inhibition at 30 mg/kg, iv administered every 2 days for 3 weeks and measured daily during compound dosing relative to control; assay type: functional; details: HOS-TE85, 504 h, time 21 day, read-out: TGI
[19] = tested on: HOS-TE85; assay: Antitumor activity against human MNNG cells xenografted in Balb/c mouse assessed as tumor growth inhibition at 15 mg/kg, iv administered every 2 days for 3 weeks and measured daily during compound dosing relative to control; assay type: functional; details: HOS-TE85, 504 h, time 21 day, read-out: TGI
[20] = tested on: HOS-TE85; assay: Induction of reactive oxygen species generation in human MNNG cells at 5 to 10 uM measured after 3 hrs in presence of dicoumarol by DCFH-DA probe based fluorescence assay; assay type: functional, cell-based; details: dose 5-10 µM
[21] = tested on: HOS-TE85; assay: Induction of apoptosis in human MNNG cells assessed as viable cells at 1 uM measured after 48 hrs by Alexa Fluor 488 Annexin V/propidium iodide staining based flow cytometry (reference value: 98.8%); assay type: functional; details: read-out: Activity
[22] = tested on: HOS-TE85; assay: Induction of apoptosis in human MNNG cells assessed as late apoptotic cells at 5 uM measured after 48 hrs by Alexa Fluor 488 Annexin V/propidium iodide staining based flow cytometry (reference value: 0.51%); assay type: functional
[23] = Toxicity in human MNNG cell xenografted Balb/c mouse assessed as reduction in AST level at 15 to 45 mg/kg, iv administered every 2 days for 3 weeks and measured post last dose; assay type: organism-based; details: in vivo, 504 h, dose 15-45 mg/kg, time 21 day
[24] = tested on: HOS-TE85; assay: Antitumor activity against human MNNG cells xenografted in Balb/c mouse assessed as reduction in number of live cells in tumor at 15 to 45 mg/kg, iv administered every 2 days for 3 weeks and measured post last dose by H and E staining based microscopy; assay type: functional, organism-based; details: dose 15-45 mg/kg, time 21.0 day
[25] = tested on: HOS-TE85; assay: Induction of apoptosis in human MNNG cells assessed as viable cells at 2.5 uM measured after 48 hrs by Alexa Fluor 488 Annexin V/propidium iodide staining based flow cytometry (reference value: 98.8%); assay type: functional; details: read-out: Activity

## Cc1cc2c(cc1C)-c1oc(CN3CCOCC3)c(C)c1C(=O)C2=O
[1]
  Activity: Active
[2]
  Activity: 41.1%
[3]
  Activity: 37.8%
[4]
  IC50: 1.54 µM
[5]
  Activity: 15.2%
[6]
  Activity: 3.34%
[7]
  viability at 10 µM: 58.8%
[8]
  Activity: 0.08%
[9]
  Activity: 10.2%
[10]
  Activity: 49.7%
[11]
  Activity: 9.2%
[12]
  Activity: 18.1%
[13]
  inhibition of growth at 10 µM: 99.5%
[14]
  Activity: 0.42%
[15]
  Activity: Non-toxic
[16]
  Activity: 6.97%
[17]
  Activity: Toxic
[18]
  inhibition in vivo at 30 mg/kg: 63.4%
[19]
  inhibition in vivo at 15 mg/kg: 48.2%
[20]
  Activity: inactive
[21]
  viability at 1 µM: 89.3%
[22]
  Activity: 12.8%
[23]
  Activity: Toxic
[24]
  Activity: Active
[25]
  viability at 2.5 µM: 73.6%
